Measurements reported in patent US20160186067A1, “METHODS AND SYSTEMS FOR […]” (SHELL OIL COMPANY, priority 2014, published 2016).

Experiment: Partitioning of reaction intermediates and solvents between upper toluene-rich and lower aqueous phases (toluene extraction)
Details: for Kow UL/LL (partition coefficients for toluene extraction): upper toluene-rich layer / lower aqueous-rich layer, toluene added to reactor product of wood digestion, stirred at 150° C. for 2 hours, then cooled and decanted; for Phase preference in toluene extraction: upper organic vs lower aqueous phase, Example 2
Experimental: The injector temperature was set at 250° C., and the detector temperature was set at 300° C. A range of alkanes, ketone and aldehyde monooxygenates as well as residual glycol intermediates including ethylene glycol (EG), 1,2-propylene glycol (PG) and glycerol were observed, along with phenolic components from the initial charge of solvent, and those formed in reaction.
Reaction cycles entailed 1 hour at 160° C., followed by 1 hour at 190° C., followed by 3 hours at 240° C. Six cycles of wood addition were effected, followed by heating overnight at 270° C. under 52 bar of H2 to complete the conversion of intermediates.
Stirring was then stopped, and the reactor was allowed to cool. […] Catalyst was left on the reactor bottom.

| Structure (SMILES) | Kow UL/LL (partition coefficients for toluene extraction) | Phase preference in toluene extraction |
| --- | --- | --- |
| OCCO [EG, ethylene glycol] | 0.42 | – |
| Cc1cccc(C)c1O [xylenol, 2,6-xylenol] | 51.79 | highly favored the upper organic-rich phase |
| CC(O)CO (stereo not drawn) [PG, 1,2-propylene glycol] | 5.09 | – |
| CCCc1ccc(O)c(OC)c1 [MPP, 2-methoxy-4-propylphenol] | 33.59 | highly favored the upper organic-rich phase |
